From ChEMBL document CHEMBL4613261, “Metabolic and Pharmaceutical Aspects of Fluorinated Compounds” (J Med Chem, 2020) come the findings set out here.

For the experiment, the target named is T1, Lysine decarboxylase (Hafnia alvei) (UniProt P05033).
T1 sequence (whole entry): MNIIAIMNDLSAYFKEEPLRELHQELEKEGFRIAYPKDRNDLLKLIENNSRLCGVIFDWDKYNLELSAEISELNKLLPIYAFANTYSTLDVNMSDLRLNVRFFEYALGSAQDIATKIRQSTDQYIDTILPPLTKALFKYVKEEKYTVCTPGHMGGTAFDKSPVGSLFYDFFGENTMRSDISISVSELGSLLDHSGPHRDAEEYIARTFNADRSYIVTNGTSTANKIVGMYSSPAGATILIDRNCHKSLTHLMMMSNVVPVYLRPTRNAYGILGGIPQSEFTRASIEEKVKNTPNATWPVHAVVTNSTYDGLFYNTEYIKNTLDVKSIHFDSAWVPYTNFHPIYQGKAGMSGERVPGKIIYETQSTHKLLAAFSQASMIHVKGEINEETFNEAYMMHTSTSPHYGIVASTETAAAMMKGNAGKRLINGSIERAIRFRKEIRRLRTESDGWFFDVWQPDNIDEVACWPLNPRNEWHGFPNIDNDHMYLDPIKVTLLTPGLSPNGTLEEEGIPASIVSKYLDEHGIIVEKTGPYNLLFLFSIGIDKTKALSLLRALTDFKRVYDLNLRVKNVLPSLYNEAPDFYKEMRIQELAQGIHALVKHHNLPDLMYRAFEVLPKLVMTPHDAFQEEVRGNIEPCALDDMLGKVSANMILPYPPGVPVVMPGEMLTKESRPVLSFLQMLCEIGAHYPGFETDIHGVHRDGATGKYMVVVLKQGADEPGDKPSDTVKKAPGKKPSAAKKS
Description: Time dependent inhibition of Hafnia alvei lysine decarboxylase assessed as inactivation half life using L-lysine by Kitz-Wilson analysis

In the case of `C=C(F)[C@@](N)(CCCCN)C(=O)O`, the T1/2 amounted to 3.6 min.
To `C=C(F)[C@](N)(CCCCN)C(=O)O` belongs 2.8 min.
